{
  "source": "ChEMBL document CHEMBL1155658",
  "about": "“Isolation and structures of schleicherastatins 1-7 and schleicheols 1 and 2 from the teak forest medicinal tree Schleichera oleosa” (2000)",
  "type_in_all_cases": "functional",
  "key": {"P388": {"test_system": "P388", "assay": "Growth inhibition of mouse P388 cells"}, "NCI-H460": {"test_system": "NCI-H460", "assay": "Growth inhibition of human NCI-H460 cells"}, "KM-20L2": {"test_system": "KM-20L2", "assay": "Growth inhibition of human KM20L2 cells"}, "BXPC-3": {"test_system": "BXPC-3", "assay": "Growth inhibition of human BXPC3 cells"}, "OVCAR-3": {"test_system": "OVCAR-3", "assay": "Growth inhibition of human OVCAR-3 cells"}, "[1]": {"assay": "Growth inhibition of human prostate cancer cells", "conditions": "Cancer cell lines"}, "SF-295": {"test_system": "SF-295", "assay": "Growth inhibition of human SF295 cells"}},
  "data": [
    {"molecule": "COC(=O)c1ccc(O)c(O)c1", "note": "[METHYL PROTOCATECHUATE]", "values": [
      {"measurement": "EC50", "setting": "P388; read-out: ED50 (the source's name)", "value": 1.4, "unit": "µg/mL"}
    ]},
    {"molecule": "CC[C@H](CC[C@@H](C)C1CC[C@H]2[C@@H]3[C@@H](OC)C=C4C[C@@H](O)CC[C@]4(C)[C@H]3CC[C@]12C)C(C)C", "note": "(some centres not stated) [SCHLEICHEOL 1]", "values": [
      {"measurement": "GI50", "setting": "NCI-H460", "value": 1.8, "unit": "µg/mL"},
      {"measurement": "GI50", "setting": "KM-20L2", "value": 2.5, "unit": "µg/mL"},
      {"measurement": "GI50", "setting": "BXPC-3", "value": 3.3, "unit": "µg/mL"},
      {"measurement": "GI50", "setting": "OVCAR-3", "value": 2.1, "unit": "µg/mL"},
      {"measurement": "GI50", "setting": "[1]", "value": 1.8, "unit": "µg/mL"},
      {"measurement": "GI50", "setting": "P388", "value": 14, "unit": "µg/mL"},
      {"measurement": "GI50", "setting": "SF-295", "value": 3.2, "unit": "µg/mL"}
    ]},
    {"molecule": "CC[C@H](CC[C@@H](C)C1CC[C@H]2C3[C@H](OC)C=C4C[C@@H](O)CC[C@]4(C)[C@H]3CC[C@]12C)C(C)C", "note": "(some centres not stated) [SCHLEICHEOL 2]", "values": [
      {"measurement": "GI50", "setting": "NCI-H460", "value": 2.2, "unit": "µg/mL"},
      {"measurement": "GI50", "setting": "KM-20L2", "value": 1.2, "unit": "µg/mL"},
      {"measurement": "GI50", "setting": "BXPC-3", "value": 1.4, "unit": "µg/mL"},
      {"measurement": "GI50", "setting": "OVCAR-3", "value": 2.5, "unit": "µg/mL"},
      {"measurement": "GI50", "setting": "[1]", "value": 1.6, "unit": "µg/mL"},
      {"measurement": "GI50", "setting": "P388", "value": 15, "unit": "µg/mL"},
      {"measurement": "GI50", "setting": "SF-295", "value": 1.9, "unit": "µg/mL"}
    ]},
    {"molecule": "CC[C@H](C[C@@H](O)[C@@H](C)[C@H]1CC[C@H]2[C@@H]3[C@@H](OC)C=C4C[C@@H](O)CC[C@]4(C)[C@H]3CC[C@]12C)C(C)C", "note": "[SCHLEICHERASTATIN 1]", "values": [
      {"measurement": "GI50", "setting": "P388", "value": 0.19, "unit": "µg/mL"}
    ]},
    {"molecule": "CC[C@H](C[C@@H](O)[C@@H](C)[C@H]1CC[C@H]2[C@@H]3[C@H](OC)C=C4C[C@@H](O)CC[C@]4(C)[C@H]3CC[C@]12C)C(C)C", "note": "[SCHLEICHERASTATIN 2]", "values": [
      {"measurement": "GI50", "setting": "P388", "value": 0.72, "unit": "µg/mL"}
    ]},
    {"molecule": "CO[C@H]1C=C2C[C@@H](O)CC[C@]2(C)[C@H]2CC[C@]3(C)C([C@H](C)[C@H](O)C[C@@H](C)C(C)C)CC[C@H]3[C@H]12", "note": "(some centres not stated) [SCHLEICHERASTATIN 3]", "values": [
      {"measurement": "GI50", "setting": "P388", "value": 1.2, "unit": "µg/mL"}
    ]},
    {"molecule": "CO[C@H]1C=C2C[C@@H](O)CC[C@]2(C)[C@H]2CC[C@]3(C)C([C@H](C)[C@H](O)C[C@H](C)C(C)C)CC[C@H]3[C@H]12", "note": "(some centres not stated) [SCHLEICHERASTATIN 4]", "values": [
      {"measurement": "GI50", "setting": "P388", "value": 1.2, "unit": "µg/mL"}
    ]},
    {"molecule": "CC[C@H](C[C@@H](O)[C@@H](C)C1CC[C@H]2[C@@H]3C(=O)C=C4C[C@@H](O)CC[C@]4(C)[C@H]3CC[C@]12C)C(C)C", "note": "(some centres not stated) [SCHLEICHERASTATIN 5]", "values": [
      {"measurement": "GI50", "setting": "P388", "value": 0.34, "unit": "µg/mL"}
    ]},
    {"molecule": "CC(C)[C@H](C)C[C@@H](O)[C@@H](C)C1CC[C@H]2[C@@H]3C(=O)C=C4C[C@@H](O)CC[C@]4(C)[C@H]3CC[C@]12C", "note": "(some centres not stated) [SCHLEICHERASTATIN 6]", "values": [
      {"measurement": "GI50", "setting": "P388", "value": 0.78, "unit": "µg/mL"}
    ]},
    {"molecule": "CC(C)[C@@H](C)C[C@@H](O)[C@@H](C)C1CC[C@H]2[C@@H]3C(=O)C=C4C[C@@H](O)CC[C@]4(C)[C@H]3CC[C@]12C", "note": "(some centres not stated) [SCHLEICHERASTATIN 7]", "values": [
      {"measurement": "GI50", "setting": "P388", "value": 0.78, "unit": "µg/mL"}
    ]}
  ]
}
